Measurements reported in patent publication US10752616B2, “Bicycloheteroaryl-heteroaryl-benzoic acid compounds as retinoic acid receptor beta (RARβ) agonists” (King's College London, priority 2014, dated 2020).

How the values were obtained:
phospho-Akt = assay: Western blot of cerebellar cultures for phospho-Akt; assay type: cell-based, rat; details: cerebellar cultures treated with 1 μM
cerebellar neurons = assay: Neurite outgrowth assay, cerebellar neurons in the presence of myelin/MAG; assay type: cell-based, rat
Protocol: (§1) Cerebellar neurons isolated from post-natal day 3 rat pups were cultured over monolayers of parental 3T3 cells in control media, or media supplemented with a recombinant MAG-Fc chimera (R&D Systems) used at a final concentration of 20 μg/mL MAG-Fc. The monolayers were established for 24 hours prior to addition of the neurons and the co-cultures were maintained for approximately 21 hours. Following careful fixation with 4% paraformaldehyde, the neurons were immuno-stained with a GAP-43 antibody (from Graham Wilkin, Imperial College), dilution of 1:500, and the mean length of the longest neurite per cell was measured for approximately 120-150 neurons as previously described (see, e.g., Williams et al., 2005). DRG and cortical explants were obtained from adult rats, they were cultured in cellogen as previously described (see, e.g., Corcoran and Maden, 1999). Three explants per treatment were used. Neurite outgrowth was assessed 3 days later by immunohistochemistry with NF200 (Sigma, dilution of 1:200). The average lengths of the neurites were measured using image pro plus software. Media consisted of DMEM-F12 (Invitrogen) containing N2 (Invitrogen) supplemented with glucose (33 mM) and glutamine (2 mM).

RARβ = RARβ (Homo sapiens (Human), UniProt P10826); assay: Transactivation assay, human RARβ; assay type: cell-based; details: Table 1; all human data; read-out: RARβ potency EC50
Chain of RARβ (P10826 183-417): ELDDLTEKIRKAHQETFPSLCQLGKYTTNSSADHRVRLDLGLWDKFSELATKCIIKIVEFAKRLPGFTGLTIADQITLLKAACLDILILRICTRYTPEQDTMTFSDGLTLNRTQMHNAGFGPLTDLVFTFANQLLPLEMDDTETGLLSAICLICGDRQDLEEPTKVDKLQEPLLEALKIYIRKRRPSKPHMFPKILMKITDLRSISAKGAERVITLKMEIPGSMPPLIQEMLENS
Protocol: (§2) Transcriptional transactivation assays were performed with gal4 fusion receptor constructs, created using each of the RAR ligand binding domains of either mouse or human, co-transfected with the pFR-luc (Stratagene) reporter construct in COS-7 cells.
(§3) Briefly, on day 1, 96 well plates were seeded with 8000 cells per well then left to recover overnight. On day 2, the cells were co-transfected with 100 ng of reporter plasmid and 10 ng of the appropriate receptor plasmid per well using lipofectamine (Invitrogen). On day 3, the lipofectamine containing media was replaced by a DMEM without phenol red, followed by the addition of test compound dissolved in 1 μL of DMSO to each well's 100 μL total volume. Finally, on day 4, the cells were lysed and their luciferase substrate was provided by the BrightGlo™ reagent (Promega), the plates were then read on the MicroBeta TriLux™ (Perkin Elmer).
(§4) Data for test compounds are quoted as EC50 values. Where replicate data has been generated, the data are quoted as the mean EC50 from the separate experiments.

RARγ [1] = target: T1, RARγ (Homo sapiens (Human), UniProt P13631); details: Bernard et al., 1992; Delescluse et al., 1991; cited from earlier work
Target sequence in this assay (P13631 whole entry, species assumed): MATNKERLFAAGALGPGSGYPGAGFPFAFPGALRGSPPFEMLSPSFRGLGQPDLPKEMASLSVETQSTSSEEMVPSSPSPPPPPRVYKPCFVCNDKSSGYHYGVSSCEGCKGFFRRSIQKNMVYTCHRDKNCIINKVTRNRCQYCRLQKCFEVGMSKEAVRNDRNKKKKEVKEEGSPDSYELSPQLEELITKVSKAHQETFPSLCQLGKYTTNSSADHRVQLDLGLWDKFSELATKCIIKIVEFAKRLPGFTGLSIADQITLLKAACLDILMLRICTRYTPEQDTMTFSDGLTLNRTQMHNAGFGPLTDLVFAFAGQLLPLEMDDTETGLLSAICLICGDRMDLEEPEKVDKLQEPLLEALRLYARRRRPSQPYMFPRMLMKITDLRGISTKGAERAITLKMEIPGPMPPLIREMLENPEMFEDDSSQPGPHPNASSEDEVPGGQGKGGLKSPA

[2] = system: rats with crushed corticospinal tract (CST); assay: Corticospinal tract (CST) crush at C4 in rats, i.c.v. treatment; tracing and behavioural tests; assay type: in vivo; details: rat
Protocol: FIGS. 1A and 1B show two graphs of the number of rat footslips as a function of the number of weeks after lesion, for grid task (FIG. 1A) and beam task (FIG. 1B).
All animal experiments were carried out under UK home office regulations. Dorsal column lesions were performed on adult male rats as previously described (see, e.g., Bradbury et al., 2002). […] The pumps were placed subcutaneously and connected to a brain infusion catheter (Alzet™), which was inserted into the lateral ventricle (Bregma coordinates: rostrocaudal: −0.8 mm, mediolateral: −1.5 mm and dorsoventral: −4.5 mm). […] The dose was based previous in vivo studies on activation of RARα and RARβ signalling in the adult rat brain (see, e.g., Goncalves et al., 2009). Animals which underwent behavioural studies and subsequent tracing (n=6 per treatment) were kept for six weeks before being sacrificed with a lethal injection of pentobarbital and transcardially perfused with 4% PFA. Dissected tissue (cervical and lumbar spinal cord) was processed for immunofluoresence.
Descendent corticospinal tract axons were anterogradely traced after the dorsal column crush was performed by injected BDA (10% in PBS, Mw10K from Molecular Probes) into the motor cortex as previously described (see, e.g., Yip et al., 2006). Six injections were done in the right cortex (0.5 μL of BDA/injection point). Animals (n=6 per treatment) were perfused and the spinal cord was transferred to PBS (plus 0.1% sodium azide) and embedded in gelatin (10%, 300 bloom; Sigma, Poole, UK). Gelatin blocks were hardened in 4% paraformaldehyde, and 40 μm free-floating serial transverse sections were cut on a vibratome (Leica, Nussloch, Germany) and collected in 24-well plates containing PBS (plus 0.1% sodium azide).
BDA was detected using the tyramide amplification kit (Perkin-Elmer) coupled with extra-avidin-FITC (Amersham Pharmacia Biotech, UK, 1:500). All BDA-labelled fibres observed within a 1-mm square grid were counted at measured intervals from 5 mm above to 5 mm below the lesion site by an experimenter, blinded to treatment.
CST neurons were labelled by retrograde tracing injecting 2 μL of 5% Fluorogold (FG, Molecular Probes) 2 mm deep into the cervical spinal cord (C3-C4) at a rate of 0.5 μL/minute (n=3 rats per group). In sham animals, FG was injected 0.5 mm bilateral to the medial line of spinal cord (1 μL per side), and in lesioned animals FG (2 μL) was injected into the injury. After 14 days, the cortices were fixed for 2 hours in 4% paraformaldehyde (PFA), embedded in OCT compound and stored frozen. Sagittal sections (12 μm) were cut and 4 sequential slides containing 2 sections from lateral 3.4-3.9 mm were taken for analysis (see, e.g., Paxinos and Watson, 2002).
Immunohistochemistry was carried out using anti-rabbit phospho-Akt (Cell Signalling technology, dilution of 1:100). Secondary antibody used was anti-rabbit Cy3 conjugated (Jackson, used at 1:1000). Images were captured at 100× magnification using a Roperscientific digital camera.
The behavioural tests were carried out as previously described (see, e.g., Bradbury et al., 2002). Rats (n=6 per treatment group) were first trained for two weeks before surgery to perform grid walk and beam walk; they were then tested by an observer blinded to the experimental treatment once a week for five weeks after lesion.

[3] = system: rats with severed sensory roots; assay: Severed and re-implanted sensory roots (DRG, left forelimb) in rats; sticky tape tests; assay type: in vivo; details: rat, 1 mg/kg two days after lesion, then three times a week
Protocol: In another example of nerve injury, the four sensory roots from each of four DRG at the level of the left forelimb were severed and re-implanted into the spinal cord.
FIGS. 2A and 2B show two graphs of the time taken for rats to sense sticky tape (FIG. 2A) and to remove sticky tape (FIG. 2B) that is placed on its injured forepaw, as a function of the number of weeks after injury. Rats were treated with 1 mg/kg of the test compound or vehicle two days after lesion, and then three times a week for the period of the experiment. Error bars show SEM. ***P<0.001, students t test, n=3-4 rats for each treatment group. At weeks 3, 4, and 5, there was significant difference between the rats treated with RARβ agonist as compared to rats treated with other retinoid agonists and vehicle.

RARγ [4] = target: T1, RARγ; assay: Transactivation assay, human RARγ; assay type: cell-based; details: Table 1; all human data
Protocol: as §2, §3, §4
Target sequence in this assay (P13631 185-419): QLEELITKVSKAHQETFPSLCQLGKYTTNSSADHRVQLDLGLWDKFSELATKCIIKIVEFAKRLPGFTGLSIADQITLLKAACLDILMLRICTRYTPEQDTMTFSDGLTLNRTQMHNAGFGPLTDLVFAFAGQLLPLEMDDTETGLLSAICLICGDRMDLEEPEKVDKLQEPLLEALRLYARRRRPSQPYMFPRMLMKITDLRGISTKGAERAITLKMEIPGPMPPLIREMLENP

RARα [5] = target: T2, RARα (Homo sapiens (Human), UniProt P10276); details: Bernard et al., 1992; Delescluse et al., 1991; cited from earlier work
Target sequence in this assay (P10276 whole entry, species assumed): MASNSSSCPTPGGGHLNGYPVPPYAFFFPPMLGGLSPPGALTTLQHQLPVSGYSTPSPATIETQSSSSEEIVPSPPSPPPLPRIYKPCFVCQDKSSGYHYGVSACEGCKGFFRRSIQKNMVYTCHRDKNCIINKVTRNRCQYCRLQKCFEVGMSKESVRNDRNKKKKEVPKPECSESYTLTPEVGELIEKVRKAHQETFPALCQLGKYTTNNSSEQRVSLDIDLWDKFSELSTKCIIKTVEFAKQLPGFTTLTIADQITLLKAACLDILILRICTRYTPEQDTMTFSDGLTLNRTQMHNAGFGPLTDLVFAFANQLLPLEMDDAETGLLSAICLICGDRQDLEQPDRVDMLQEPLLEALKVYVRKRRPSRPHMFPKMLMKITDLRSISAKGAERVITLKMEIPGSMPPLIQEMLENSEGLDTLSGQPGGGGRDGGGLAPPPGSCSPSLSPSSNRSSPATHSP

RARα [6] = target: T2, RARα; assay: Transactivation assay, human RARα; assay type: cell-based; details: Table 1; all human data
Protocol: as §2, §3, §4
Target sequence in this assay (P10276 183-417): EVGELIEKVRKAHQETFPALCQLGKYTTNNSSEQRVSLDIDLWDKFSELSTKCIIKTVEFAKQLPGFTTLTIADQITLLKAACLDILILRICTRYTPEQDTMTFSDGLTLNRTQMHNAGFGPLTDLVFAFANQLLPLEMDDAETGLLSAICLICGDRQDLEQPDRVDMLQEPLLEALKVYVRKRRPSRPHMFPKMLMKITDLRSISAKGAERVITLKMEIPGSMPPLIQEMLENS

cortex explants = assay: Neurite outgrowth from cultured cortex of treated lesioned animals; assay type: cell-based, rat; details: cortex from lesioned rats treated in vivo
Protocol: When pieces of cortex from these RARβ agonist treated animals were cultured, neurite outgrowth was observed, in contrast to cortex from control lesioned animals.
as §1

[7] = i.c.v. 180 ng/kg/day for 14 days

SMILES: COc1ccc(-c2ccc3cc(C(=O)O)ccc3c2)cc1C1(C)CCCCC1 [CD2019, 6-(4-methoxy-3-(1-methylcyclohexyl)phenyl)-2-naphthalenecarboxylic acid]
- Increase in neuronal phospho-Akt (not total Akt) compared to control cultures (phospho-Akt): 4 fold
- Neurite outgrowth of cerebellar neurons grown in the presence of myelin (cerebellar neurons): causes the outgrowth of neurites
- EC50 (RARβ): 0.83 nM
- Selectivity RARβ over RARγ (RARγ [1]): 12 fold
- Phospho AKT in the injured CST neurons in vivo [2]: induced
- BDA labelled CST axons crossing the lesion site ([2]; after 5 weeks): many axons were observed crossing the injury site
- RARβ2 expression in CST neuronal cell bodies ([2]; applied to the lateral ventricle for 2 weeks): upregulation of RARβ 2
- Behavioural tests after 5 weeks (CST lesion) ([2]; grid walk and beam walk): performed as well as non-lesioned animals
- Functional recovery of the forelimb in beam task (footslips), time of recovery [2, 7]: 2 weeks post lesion
- Functional recovery of the forelimb in grid task (footslips), time of recovery [2, 7]: 4 weeks post lesion
- Behavioural tests after 5 weeks (severed sensory roots) [3]: performed as well as non-lesioned animals
- Selectivity over RARγ (RARγ [4]): 1.9-fold
- Selectivity RARβ over RARα (RARα [5]): 5 fold
- Selectivity over RARα (RARα [6]): 11-fold
- Axon/neurite outgrowth from cultured adult cortex of treated animals (cortex explants): did grow
